Like-named read-outs stand apart in the source and are kept apart here.
What was measured:
[1] = tested on: SW480 colon carcinoma cells; assay: Cell viability assay (CellTiter-Glo) in SW480 cells; format: cell-based, human; details: Homo sapiens, 96 h, four days
Procedure: SW480 colon carcinoma cells were transduced with a lentiviral vector expressing luciferase with a human Sp5 promoter consisting of a sequence of eight TCF/LEF binding sites. SW480 cells stably expressing the Sp5-Luc reporter gene and a hygromycin resistance gene were selected by treatment with 150 µg/mL of hygromycin for 7 days. These stably transduced SW480 cells were expanded in cell culture and used for all further screening activities.
For the Cell Viability Assays, the cells were plated at 2,000 cells/well in 384-well plates with a DMEM medium containing 1% fetal bovine serum, and 1% Penicillin-Streptomycin and incubated for […] at 37° C. and 5% CO2. Eight replicates of DMSO-treated cells served as controls and cells treated with compound were performed in duplicate.
After incubation, 10 μL of CellTiter-Glo (Promega) was added to each well allowed to incubate for approximately 12 minutes. This reagent “results in cell lysis and generation of a luminescent signal proportional to the amount of ATP present. The amount of ATP is directly proportional to the number of cells present in culture, in agreement with previous reports. The CellTiter-Glo® Assay generates a “glow-type” luminescent signal, produced by the luciferase reaction (Promega.com)”.

recombinant GSK3β kinase = recombinant GSK3β kinase (Homo sapiens (Human), UniProt P49841); assay: GSK3β kinase assay (Ser/Thr 09 peptide Z-lyte, FRET); format: biochemical
[2] = biological target: recombinant DYRK1A kinase (Homo sapiens (Human), UniProt Q13627); assay: DYRK1A kinase assay (Ser/Thr 18 peptide Z-lyte, FRET)
IL-6 = IL-6 inhibition in LPS-stimulated human peripheral blood mononuclear cells (HTRF); format: cell-based; details: Homo sapiens, PBMC; for EC50: huPBMCs, LPS 50 ng/mL, 22 hours, IL-6 HTRF; for inhibition at 10 µM: read-out: percent inhibition at 10 μM
Procedure: Fresh Normal PB MNC (Catalog # PB001, AllCells, Alameda, Calif.) were shipped overnight at 4° C. and resuspended in Roswell Park Memorial Institute (RPMI) 1640 Medium, with GlutaMAX Supplement (Catalog #61870127, ThermoFisher Scientific, Waltham, Mass.) supplemented with 1% Penicillin-Streptomycin (Catalog #15140163, ThermoFisher Scientific, Waltham, Mass.) and 1% fetal bovine serum (FBS) (Catalog #16140089, ThermoFisher Scientific, Waltham, Mass.) assay media.
Fresh normal human peripheral blood mononuclear cells (huPBMCs) were resuspended in 1% FBS-RPMI assay media with 1% Penicillin-Streptomycin 1% to a cell concentration of 1×10e6 cells/mL. […] 50 ng/mL of Lipopolysaccharides from Escherichia coli 0111:B4 (Catalog #L5293-2ML, Sigma-Aldrich, St. Louis, Mo.) was added after 2 hours and cells were incubated for another 22 hours at 37° C.-5% CO2. After 22 hour incubation, a mixture of anti-IL6 XL665 and anti-IL-6 Cryptate diluted in reconstitution buffer (Catalog #62IL6PEC, Cisbio Inc., Bedford, Mass.) was added to each well. Following incubation for 3 hours at room temperature, Homogeneous Time-Resolved Fluorescence (HTRF) was measured using the Envision (Perkin Elmer, Shelton, Conn.) at 665 nm and […]. The ratio of fluorescence at 665 nm to 620 nm was used as a readout for IL-6 quantification. All samples were processed in duplicate. Readings were normalized to DMSO treated cells and normalized activities were utilized for EC50 calculations. EC50 was determined using software generated by Dotmatics Limited (Windhill Bishops Stortford Herts, UK) using the Levenberg-Marquardt 4 parameter fitting procedure with finite different gradients.

[3] = tested on: Wnt-responsive promoter (Sp5-Luc reporter) in SW480 colon carcinoma cells; assay: Sp5-Luc reporter gene screening assay for Wnt activity in SW480 cells; format: cell-based, human; details: Homo sapiens, 36 to 48 hours, luminescence
Description: The screening assay for Wnt activity is described as follows. Reporter cell lines can be generated by stably transducing cancer cell lines (e.g., colon cancer) or primary cells (e.g., IEC-6 intestinal cells) with a lentiviral construct that includes a Wnt-responsive promoter driving expression of the firefly luciferase gene.
SW480 colon carcinoma cells were transduced with a lentiviral vector expressing luciferase with a human Sp5 promoter consisting of a sequence of eight TCF/LEF binding sites. SW480 cells stably expressing the Sp5-Luc reporter gene and a hygromycin resistance gene were selected by treatment with 150 μg/mL of hygromycin for 7 days. These stably transduced SW480 cells were expanded in cell culture and used for all further screening activities. […] For Sp5-Luc reporter gene assays, the cells were plated at 4,000 cells/well in 384-well plates with a DMEM medium containing 1% fetal bovine serum, and 1% Penicillin-Streptomycin and incubated for 36 to 48 hours at 37° C. and 5% CO2. Following incubation, 15 μl of BriteLite Plus luminescence reagent (Perkin Elmer) was added to each well of the 384-well assay plates. The plates were placed on an orbital shaker for 2 min and then luminescence was quantified using the Envision (Perkin Elmer) plate reader. Readings were normalized to DMSO only treated cells, and normalized activities were utilized for EC50 calculations using the dose-response log (inhibitor) vs. response −variable slope (four parameters) nonlinear regression feature available in GraphPad Prism 5.0 (or Dotmatics).

[4] = tested on: primary human fibroblasts derived from IPF patients (LL29 cells), α-smooth muscle actin; assay: Inhibition of fibrotic process: αSMA in TGF-β1 treated LL29 fibroblasts; format: cell-based; details: Homo sapiens, Fibroblast, 96 h; LL29 cells, TGF-β1 20 ng/mL, 4 days, % cells positive for αSMA
Procedure: Representative compounds were screened using primary human fibroblasts (derived from IPF patients) treated with TGF-β1 to determine their ability to inhibit the fibrotic process.
LL29 cells were plated at 1,500 cells/well in 70 μL/well F12 medium supplemented with 1% Fetal Bovine Serum. […] Wells treated with TGF-β1 and containing DMSO were used as positive control, and cells with only DMSO were negative control. […] Following incubation for 4 days, SYTOX green nucleic acid stain (Life Technologies [Thermo Fisher Scientific]) was added to the wells at a final concentration of 1 μM and incubated at room temperature for 30 min.

[5] = GSK3β kinase, 46 μM ATP, one hour, method calls values IC50
[6] = DYRK1A kinase, 30 μM ATP, one hour, method calls values IC50

Sequence of recombinant GSK3β kinase (P49841 whole entry): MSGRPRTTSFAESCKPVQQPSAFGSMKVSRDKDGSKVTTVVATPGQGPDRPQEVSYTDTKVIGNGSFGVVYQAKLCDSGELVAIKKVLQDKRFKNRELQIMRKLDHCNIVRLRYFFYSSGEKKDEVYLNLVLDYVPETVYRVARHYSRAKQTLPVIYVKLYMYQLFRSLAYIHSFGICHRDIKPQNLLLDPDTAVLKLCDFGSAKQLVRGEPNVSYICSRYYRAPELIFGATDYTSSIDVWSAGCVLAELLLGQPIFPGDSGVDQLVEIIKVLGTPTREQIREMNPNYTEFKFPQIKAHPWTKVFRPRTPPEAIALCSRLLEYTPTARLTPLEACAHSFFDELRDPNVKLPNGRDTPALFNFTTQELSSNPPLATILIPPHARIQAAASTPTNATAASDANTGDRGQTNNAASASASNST

Row | SMILES | EC50 [1] [µM] | EC50 (recombinant GSK3β kinase; [5]) [µM] | EC50 [2, 6] [µM] | EC50 (IL-6) [µM] | EC50 [3] [µM] | EC50 (recombinant GSK3β kinase) [µM] | EC50 [2] [µM] | EC50 [4] [µM] | inhibition at 10 µM (IL-6) [%]
1 | [2H]c1nc(NC(=O)c2cnn(C(C)C)c2)cc2cc(-c3cncn3C)ccc12 [Compound 43, 1-Isopropyl-N-(6-(1-methyl-1H-imidazol-5-yl)isoquinolin-3-yl-1-d)-1H-pyrazole-4-carboxamide] | 0.083 |  |  | 0.251 | 0.048 | 3.07 | 0.002 | 0.151 | 
2 | Cn1cc(CC(=O)Nc2cc3cc(-c4cncn4C)ccc3cn2)cn1 [Compound 47, N-(6-(1-methyl-1H-imidazol-5-yl)isoquinolin-3-yl)-2-(1-methyl-1H-pyrazol-4-yl)acetamide] | 0.607 | 0.029 | 0.003 | 0.388 | 0.556 |  |  | 0.094 | 
3 | [2H]C([2H])([2H])n1cc(-c2ccc3cnc(NC(=O)c4cnn(C5CCNCC5)c4)cc3c2)cn1 [Compound 3, N-(6-(1-(Methyl-d3)-1H-pyrazol-4-yl)isoquinolin-3-yl)-1-(piperidin-4-yl)-1H-pyrazole-4-carboxamide] | 0.038 |  |  | 1.04 | 0.023 | > 10 | 0.003 | 0.074 | 
4 | Cc1ncc(-c2ccc3cnc(NC(=O)c4cnn(C)c4)cc3c2)n1C [Compound 60, N-(6-(1,2-Dimethyl-1H-imidazol-5-yl)isoquinolin-3-yl)-1-methyl-1H-pyrazole-4-carboxamide] | 0.405 | 4.01 | 0.004 | 1.58 | 0.121 |  |  | 0.77 | 
5 | Cn1cncc1-c1ccc2cnc(NC(=O)c3cn(C4CCOCC4)cn3)cc2c1 [Compound 50, N-(6-(1-Methyl-1H-imidazol-5-yl)isoquinolin-3-yl)-1-(tetrahydro-2H-pyran-4-yl)-1H-imidazole-4-carboxamide] | 0.833 | 4.49 | 0.021 | 3.28 | 0.1 |  |  | 1.18 | 
6 | CN(C)C1CN(c2ncc(C(=O)Nc3cc4cc(-c5cnn(C)c5)ccc4cn3)s2)C1 [Compound 24, 2-(3-(Dimethylamino)azetidin-1-yl)-N-(6-(1-methyl-1H-pyrazol-4-yl)isoquinolin-3-yl)thiazole-5-carboxamide] | 1.64 | 1.76 | 0.002 | 3.02 | 1.32 |  |  | 2.75 | 
7 | CC(C)n1cc(C(=O)Nc2cc3cc(-c4cncn4C)ccc3cn2)cn1 [Compound 42, 1-Isopropyl-N-(6-(1-methyl-1H-imidazol-5-yl)isoquinolin-3-yl)-1H-pyrazole-4-carboxamide] | 0.999 | 9.99 | 0.023 | > 10 | 0.602 |  |  | 2.5 | 37.1
8 | CC(C)N1CCC(n2cc(C(=O)Nc3cc4cc(-c5cn(C)nn5)ccc4cn3)nn2)CC1 [Compound 35, 1-(1-Isopropylpiperidin-4-yl)-N-(6-(1-methyl-1H-1,2,3-triazol-4-yl)isoquinolin-3-yl)-1H-1,2,3-triazole-4-carboxamide] | 0.306 | 0.295 | 0.01 | 2.11 | 0.111 |  |  | 0.635 | 
9 | Cn1cc(-c2ccc3cnc(NC(=O)c4cn(C5CCNCC5)nn4)cc3c2)cn1 [Compound 11, N-(6-(1-Methyl-1H-pyrazol-4-yl)isoquinolin-3-yl)-1-(piperidin-4-yl)-1H-1,2,3-triazole-4-carboxamide] | 0.273 | 9.99 | 0.007 | 2.63 |  |  |  | 0.607 | 

More lines, main results first:

Row | EC50 [1] [µM] | EC50 (recombinant GSK3β kinase; [5]) [µM] | EC50 [2, 6] [µM] | EC50 (IL-6) [µM] | EC50 [3] [µM] | EC50 (recombinant GSK3β kinase) [µM] | EC50 [2] [µM] | SMILES | EC50 [4] [µM] | inhibition at 10 µM (IL-6) [%]
10 | 0.47 | 3.63 | 0.009 | 3.75 | 0.105 |  |  | CN1CCC(n2cc(C(=O)Nc3cc4cc(-c5cnn(C)c5)ccc4cn3)nn2)CC1 [Compound 12, N-(6-(1-Methyl-1H-pyrazol-4-yl)isoquinolin-3-yl)-1-(1-methylpiperidin-4-yl)-1H-1,2,3-triazole-4-carboxamide] | 0.983 | 
11 | 0.077 | 1.5 | 0.003 | 0.145 | 0.035 |  |  | Cn1cc(-c2ccc3cnc(NC(=O)c4cnn(C5CCN(CCF)CC5)c4)cc3c2)cn1 [Compound 7, 1-(1-(2-Fluoroethyl)piperidin-4-yl)-N-(6-(1-methyl-1H-pyrazol-4-yl)isoquinolin-3-yl)-1H-pyrazole-4-carboxamide] | 0.047 | 
12 | 3.41 | 2.19 | 0.003 | > 10 | 1.75 |  |  | CN1CCN(c2nc(C(=O)Nc3cc4cc(-c5cnn(C)c5)ccc4cn3)cs2)CC1 [Compound 26, N-(6-(1-Methyl-1H-pyrazol-4-yl)isoquinolin-3-yl)-2-(4-methylpiperazin-1-yl)thiazole-4-carboxamide] | 4.7 | 40.3
13 | 0.664 | 0.395 | 0.006 | 1.1 | 0.23 |  |  | Cn1cc(-c2ccc3cnc(NC(=O)c4cn(C5CCN(CCF)CC5)nn4)cc3c2)nn1 [Compound 34, 1-(1-(2-Fluoroethyl)piperidin-4-yl)-N-(6-(1-methyl-1H-1,2,3-triazol-4-yl)isoquinolin-3-yl)-1H-1,2,3-triazole-4-carboxamide] | 0.642 | 
14 | 0.3 | 0.979 | 0.012 | 0.695 | 0.106 |  |  | Cn1cc(-c2ccc3cnc(NC(=O)c4coc(C5CCNCC5)n4)cc3c2)cn1 [Compound 19, N-(6-(1-Methyl-1H-pyrazol-4-yl)isoquinolin-3-yl)-2-(piperidin-4-yl)oxazole-4-carboxamide] | 0.17 | 
15 | 1.26 | 1.33 | 0.016 | > 10 |  |  |  | Cn1cc(-c2ccc3cnc(NC(=O)c4coc(C5CCN(CCF)CC5)n4)cc3c2)cn1 [Compound 21, 2-(1-(2-Fluoroethyl)piperidin-4-yl)-N-(6-(1-methyl-1H-pyrazol-4-yl)isoquinolin-3-yl)oxazole-4-carboxamide] | 9.62 | 27.2
